Measured values from article PMC3208124 (Journal of medicinal chemistry, 2011).

Columns and labels:
[1] = tested on: Plasmodium falciparum K1 (drug resistant) strain; assay: Growth inhibition of P. falciparum K1 in erythrocytic co-culture; assay type: cell-based; conditions: K1, read-out: EC50 K1
[2] = tested on: Plasmodium falciparum 3D7 (drug sensitive) strain; assay: Growth inhibition of P. falciparum 3D7 in erythrocytic co-culture; assay type: cell-based; conditions: 3D7, read-out: EC50 3D7

O=C(CCc1ccccc1)c1ccccc1OCC(O)CN1CCN(C(c2ccccc2)c2ccccc2)CC1 (centres unmarked) [Compound 6z]
EC50 [1]: ≤ 0.1 µM
EC50 [2]: ≤ 0.1 µM
